Experimental data taken from US7491819B1 (priority 2004, dated 2009).
Like-named read-outs stand apart in the source and are kept apart here.

Experiments:
HIV-integrase = molecular target: T1, HIV-integrase (Human immunodeficiency virus type 1 group M subtype B, UniProt P12497); experiment: HIV-Integrase Inhibition Activity (SPA bead strand-transfer assay); type: biochemical
T1 construct: Recombinant integrase (0.26 ng) was incubated with the beads
Method in brief: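 Strand-transfer read-out: CPM from P33-labelled target DNA (0.1 fmol) joined to bead-bound biotin substrate DNA (5 pmole), with EDTA stop at 10 mM final. Integrase (0.26 ng) prebound to streptavidin SPA beads 90 min, 37° C, and washed before adding inhibitor.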

NL-Rluc virus = experiment: Inhibition of HIV replication (recombinant NL-Rluc virus, luciferase); type: cell-based; conditions: Human immunodeficiency virus 1, read-out: Inhibition of HIV replication
MT-2 cells = experiment: Cytotoxicity assay of the drug combinations, uninfected cells, MTS; type: cell-based; conditions: highest concentrations tested, five days
Protocol: (§1) Drug Susceptibility and Cytotoxicity Assays. For drug susceptibility assays, MT-2 cells were infected with HIV-1 303B (or NL36G), at an MOI of 0.001, and seeded into 96-well microtiter plates (2.5×10^5 cells/ml) containing serial dilutions of test compounds. […] Each drug ratio consisted of an array of 3-fold serial dilutions, and was performed with eight or more replicas on separate multi-well plates. HIV infected cells were incubated at 37° C. in 5% CO2, and on day five post-infection, the extent of virus replication was measured by determining cell viability using the CellTiter 96 Aqueous Non-Radioactive Cell Proliferation Assay (Promega). Maximal cell protection was typically seen in samples treated with the highest drug concentration. In the cell viability assay, the tetrazolium compound MTS (3-(4,5-dimethylthiazol-2-yl)-5-(3-carboxymethoxyphenyl)-2-4-sulphophenyl-2H-tetrazolium) is added to cells, whereby enzymes in metabolically active cells convert it into a colored formazan product, which is quantitated by reading absorbance at 490 nm. Cytotoxicity assays were performed in parallel with the combination experiments. Here, uninfected cells were exposed to the same drug combinations, and assayed after five days for cell viability using the MTS assay.

NL36G virus = system: NL36G virus
Protocol: Virus and cell lines. The T-cell line, MT-2, was obtained through the AIDS Research and Reference Reagent Program. MT-2 cells were sub-cultured twice a week in RPMI 1640 medium supplemented with 10% fetal bovine serum, 2 mM L-glutamine, and 10 mM HEPES buffer pH 7.5. The HIV-1303B virus is a molecular clone derived from the NL4-3 strain of HIV-1 that was obtained from the NIH AIDS Research and Reference Reagent Program. For combinations with enfuvirtide, the NL36G virus was used. […] Virus stocks were made by transfecting 293T cells with a proviral DNA clone using LipofectAMINE PLUS (Invitrogen), according to the manufacturer's instructions. Three days post-transfection, virus was harvested and passaged once in MT-2 cells before titration in MT-2 cells.
Chemicals. Example 19, atazanavir, didanosine, stavudine, efavirenz, and enfuvirtide (T-20) were synthesized by Bristol-Myers Squibb using published or known reactions. […] Tenofovir was tested as tenofovir disopoxil fumarate. Zidovudine and zalcitabine were purchased from Sigma, and emtricitabine from Moravek Biochemicals.
as §1, with “Maximal cell protection was typically seen in samples treated with the highest drug concentration. In the cell viability assay, the tetrazolium compound MTS (3-(4,5-dimethylthiazol-2-yl)-5-(3-carboxymethoxyphenyl)-2-4-sulphophenyl-2H-tetrazolium) is added to cells, whereby enzymes in metabolically active cells convert it into a colored formazan product, which is quantitated by reading absorbance at 490 nm.” left out
Analysis of Drug Combination Effects. For determination of combination index (CI) values, drugs were diluted in a fixed ratio and multiple ratios were analyzed. The drug serial dilutions spanned a range of concentrations near the EC50 value of each compound, so that equivalent antiviral activities could be compared. The normalized responses from each therapy are fit to the four-parameter logistic model with a common minimum and maximum across all therapies. Conceptually, this equation can be written as
In this equation, Fa stands for “fraction affected,” and represents the fraction of the viral load that has been inactivated. […] The EC50, represented by the Ci in the above equation, is the drug concentration that is expected to reduce the amount of virus by 50%, and the Bi are the parameters that reflects the slope of the concentration-response curve. For this assay, A is the bottom plateau common to all curves, D is the common top plateau, Bj is the “slope” parameter for the jth therapy, and Cj is the concentration that produces an effect equal to the average of A and D for the jth therapy. Therapies 1 and 2 correspond to mono therapies 1 and 2, respectively. Therapies 3, 4, and 5 correspond to the three combination therapies. EC50 values for each drug were determined from the single drug experiments, using the above equation. The equation was fit using a nonlinear regression routine (Proc Nlin) in PC SAS version 8.2 (SAS Institute Inc.).
To assess antiviral effects of different drug combination treatments, combination indices (CIs) were calculated according to Chou and Rideout. The combination index was computed as
In this equation [Dm]1 and [Dm]2 are the concentrations of drugs that would individually produce a specific level of effect, while [D]1 and [D]2 are the concentrations of drugs in combination that would produce the same level of effect.
Theoretically, additivity is implied if the CI is equal to one, synergy if the CI is less than one, and antagonism if the CI is greater than one.

[1] = Table 1, read-out: Activity (HIV-integrase inhibition, IC50 class)
[2] = Table 2a, read-out: HIV-Integrase Inhibition Activity
[3] = in combination with Example 19, EC50 ratio 1:1 (molar 5:44)
[4] = in combination with Example 19, EC50 ratio 1:2.5 (molar 1:22)
[5] = in combination with Example 19, EC50 ratio 2.5:1 (molar 25:88)

Row | Compound | melting point | IC50 (HIV-integrase; [1]) [nM] | EC50 (NL-Rluc virus) [nM] | IC50 (HIV-integrase; [2]) [nM] | also measured
1 | COc1ncccc1-c1cc(F)ccc1CNC(=O)c1nc2n(c(=O)c1O)CCOC2(C)C [Example 76, Pyrimido[2,1-c][1,4]oxazine-2-carboxamide, N-[[4-fluoro-2-(2-methoxy-3-pyridinyl)phenyl]methyl]-4,6,7,9-tetrahydro-3-hydroxy-9,9-dimethyl-4-oxo-] | 227 °C | 2 to 100 |  |  | 
2 | Cc1cc(CNC(=O)c2nc3n(c(=O)c2O)CCOC3)ccc1F [Example 2, Pyrimido[2,1-c[]1,4]oxazine-2-carboxamide, N-[(4-fluoro-3-methylphenyl)methyl]-4,6,7,9-tetrahydro-3-hydroxy-4-oxo-] | 206 to 208 °C | 2 to 100 |  |  | 
3 | O=C(NCc1ccc(F)cc1)c1nc2n(c(=O)c1O)CCOC2 [Example 1, Pyrimido[2,1-c][1,4]oxazine-2-carboxamide, N-[(4-fluorophenyl)methyl]-4,6,7,9-tetrahydro-3-hydroxy-4-oxo-] | 211 °C | 2 to 100 |  |  | 
4 | CCOP(=O)(OCC)c1cc(F)ccc1CNC(=O)c1nc2n(c(=O)c1O)CCOC2(C)C [Example 213, Phosphonic acid, [5-fluoro-2-[[[(4,6,7,9-tetrahydro-3-hydroxy-9,9-dimethyl-4-oxopyrimido[2,1-c][1,4]oxazin-2-yl)carbonyl]amino]methyl]phenyl]-, diethyl ester] | 124 °C | 2 to 100 |  |  | 
5 | CC1OCCn2c1nc(C(=O)NCc1ccc(F)cc1)c(O)c2=O (stereo not shown) [Example 4, Pyrimido[2,1-c][1,4]oxazine-2-carboxamide, N-[(4-fluorophenyl)methyl]-4,6,7,9-tetrahydro-3-hydroxy-9-methyl-4-oxo-] | 165 to 167 °C | 2 to 100 |  |  | 
6 | Cc1cc(CNC(=O)c2nc3n(c(=O)c2O)CCOC3C)ccc1F (stereo not shown) [Example 5, Pyrimido[2,1-c][1,4]oxazine-2-carboxamide, N-[(4-fluoro-3-methylphenyl)methyl]-4,6,7,9-tetrahydro-3-hydroxy-9-methyl-4-oxo-] | 134 °C | 2 to 100 |  |  | 
7 | Cn1ccc(-c2cc(F)ccc2CNC(=O)c2nc3n(c(=O)c2O)CCOC3(C)C)n1 [Example 286, Pyrimido[2,1-c][1,4]oxazine-2-carboxamide, N-[[4-fluoro-2-(1-methyl-1H-pyrazol-3-yl)phenyl]methyl]-4,6,7,9-tetrahydro-3-hydroxy-9,9-dimethyl-4-oxo-] | 220 °C |  | 3 to 100 | 2 to 100 | 
8 | Cn1nccc1-c1cc(F)ccc1CNC(=O)c1nc2n(c(=O)c1O)CCOC2(C)C [Example 287, Pyrimido[2,1-c][1,4]oxazine-2-carboxamide, N-[[4-fluoro-2-(1-methyl-1H-pyrazol-5-yl)phenyl]methyl]-4,6,7,9-tetrahydro-3-hydroxy-9,9-dimethyl-4-oxo-] | 221 °C |  | 3 to 100 | 2 to 100 | 
9 | CCC1OCCn2c1nc(C(=O)NCc1ccc(F)cc1-n1cnc(C)n1)c(O)c2=O (stereo not shown) [Example 284, Pyrimido[2,1-c][1,4]oxazine-2-carboxamide, 9-ethyl-N-[[4-fluoro-2-(3-methyl-1H-1,2,4-triazol-1-yl)phenyl]methyl]-4,6,7,9-tetrahydro-3-hydroxy-4-oxo-e] | 213 °C |  | 3 to 100 | 2 to 100 | 
10 | Cc1ncn(-c2ccccc2CNC(=O)c2nc3n(c(=O)c2O)CCOC3(C)C)n1 [Example 288, Pyrimido[2,1-c][1,4]oxazine-2-carboxamide, 4,6,7,9-tetrahydro-3-hydroxy-9,9-dimethyl-N-[[2-(3-methyl-1H-1,2,4-triazol-1-yl)phenyl]methyl]-4-oxo-e] | 234 °C (dec.) |  | 3 to 100 | 2 to 100 | 
11 | CC1OCCn2c1nc(C(=O)NCc1ccc(F)c(Cl)c1)c(O)c2=O (stereo not shown) [Example 7, Pyrimido[2,1-c][1,4]oxazine-2-carboxamide, N-[(3-chloro-4-fluorophenyl)methyl]-4,6,7,9-tetrahydro-3-hydroxy-9-methyl-4-oxo-] | 172 °C | 2 to 100 |  |  | 
12 | enfuvirtide |  |  |  |  | cytotoxicity of the drug combinations with Example 19 (MT-2 cells): No significant cytotoxicity; overall antiviral effect of the two-drug combination with Example 19 (in words) (NL36G virus; classification from combination indices): synergistic; Combination Indices at 50% HIV Inhibition (Confidence Interval) (NL36G virus; [3]): 0.68 (0.59, 0.77); Combination Indices at 75% HIV Inhibition (Confidence Interval) (NL36G virus; [3]): 0.59 (0.48, 0.70); Combination Indices at 90% HIV Inhibition (Confidence Interval) (NL36G virus; [3]): 0.52 (0.37, 0.67); Combination Indices at 50% HIV Inhibition (Confidence Interval) (NL36G virus; [4]): 0.75 (0.65, 0.85); Combination Indices at 75% HIV Inhibition (Confidence Interval) (NL36G virus; [4]): 0.60 (0.49, 0.70); Combination Indices at 90% HIV Inhibition (Confidence Interval) (NL36G virus; [4]): 0.48 (0.34, 0.61); Combination Indices at 50% HIV Inhibition (Confidence Interval) (NL36G virus; [5]): 0.76 (0.65, 0.86); Combination Indices at 75% HIV Inhibition (Confidence Interval) (NL36G virus; [5]): 0.73 (0.59, 0.86); Combination Indices at 90% HIV Inhibition (Confidence Interval) (NL36G virus; [5]): 0.71 (0.50, 0.92); EC50 (NL36G virus; single drug, MT-2 cells, MOI 0.001, day five, MTS cell viability): 61 nM
13 | CC1OCCn2c1nc(C(=O)NCc1ccc(Cl)c(Cl)c1)c(O)c2=O (stereo not shown) [Example 6, Pyrimido[2,1-c][1,4]oxazine-2-carboxamide, N-[(3,4-dichlorophenyl)methyl]-4,6,7,9-tetrahydro-3-hydroxy-9-methyl-4-oxo-] | 192 °C | 2 to 100 |  |  | 
